Assay results published in PubChem BioAssay (NCI).
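96-well plates; 48 h exposure; 5 concentrations. Endpoints by linear interpolation between flanking doses. Not reached: highest tested concentration assigned. GI50 marks 50% less growth. TGI: concentration producing complete growth inhibition.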

Assays:
Assay in all cases: NCI-60 cell line screen, 48 h
[1] = test system: HS 578T breast
[2] = test system: HOP-62 NSCLC
[3] = test system: SNB-19 CNS
[4] = test system: OVCAR-8 ovarian
[5] = test system: NCI-H460 lung
[6] = test system: A549 NSCLC
[7] = test system: HCT-15 colon
[8] = test system: MCF7 breast
[9] = test system: LOX IMVI melanoma
[10] = test system: HL-60(TB) leukemia
[11] = test system: HT29 colon
[12] = test system: NCI-H226 lung
[13] = test system: MALME-3M melanoma
[14] = test system: U251 CNS
[15] = test system: COLO 205 colon
[16] = test system: NCI-H23 lung
[17] = test system: BT-549 breast
[18] = test system: SN12C renal
[19] = test system: ACHN renal
[20] = test system: CAKI-1 renal
[21] = test system: RXF 393 renal
[22] = test system: CCRF-CEM leukemia
[23] = test system: SNB-75 CNS
[24] = test system: OVCAR-4 ovarian
[25] = test system: HCT-116 colon
[26] = test system: KM12 colon
[27] = test system: IGROV1 ovarian
[28] = test system: NCI-H522 lung
[29] = test system: HCC-2998 colon
[30] = test system: UO-31 renal
[31] = test system: SF-539 CNS
[32] = test system: SW-620 colon
[33] = test system: UACC-257 melanoma
[34] = test system: UACC-62 melanoma
[35] = test system: MOLT-4 leukemia
[36] = test system: M14 melanoma
[37] = test system: OVCAR-3 ovarian
[38] = test system: T-47D breast
[39] = test system: MDA-MB-231 breast
[40] = test system: SK-MEL-28 melanoma
[41] = test system: SF-295 CNS
[42] = test system: MDA-MB-435
[43] = test system: SK-MEL-2 melanoma
[44] = test system: SR leukemia
[45] = test system: HOP-92 NSCLC
[46] = test system: RPMI-8226 leukemia
[47] = test system: K-562 leukemia
[48] = test system: A498 renal
[49] = test system: SK-MEL-5 melanoma
[50] = test system: EKVX NSCLC
[51] = test system: SF-268 CNS
[52] = test system: DU-145 prostate
[53] = test system: PC-3 prostate
[54] = test system: NCI/ADR-RES ovarian
[55] = test system: TK-10 renal
[56] = test system: OVCAR-5 ovarian
[57] = test system: 786-0 renal
[58] = test system: SK-OV-3 ovarian

COc1cc(/C=C/C(=O)c2cccc(-n3cc(-c4ccccc4)[nH]c3=O)c2)ccc1O
GI50 [1]: 3.09 µM
TGI [1]: 18.6 µM
GI50 [2]: 4.6 µM
TGI [2]: 15.3 µM
GI50 [3]: 3.07 µM
TGI [3]: 11 µM
GI50 [4]: 3.35 µM
TGI [4]: 17.8 µM
GI50 [5]: 3.01 µM
TGI [5]: 8.68 µM
GI50 [6]: 4.18 µM
TGI [6]: 17.8 µM
GI50 [7]: 2.9 µM
TGI [7]: 14.3 µM
GI50 [8]: 1.94 µM
TGI [8]: 6.65 µM
GI50 [9]: 2.5 µM
TGI [9]: 9.16 µM
GI50 [10]: 2.07 µM
TGI [10]: 5.53 µM
GI50 [11]: 3.77 µM
TGI [11]: > 100 µM
GI50 [12]: 6.35 µM
TGI [12]: 17.8 µM
GI50 [13]: 5.25 µM
TGI [13]: 17.1 µM
GI50 [14]: 2.5 µM
TGI [14]: 7.9 µM
GI50 [15]: 3.85 µM
TGI [15]: 9.91 µM
GI50 [16]: 3.16 µM
TGI [16]: 11.6 µM
GI50 [17]: 2.91 µM
TGI [17]: 14.7 µM
GI50 [18]: 3.02 µM
TGI [18]: 12 µM
GI50 [19]: 3.46 µM
TGI [19]: 16.3 µM
GI50 [20]: 4.47 µM
TGI [20]: 15.2 µM
GI50 [21]: 1.78 µM
TGI [21]: 4.12 µM
GI50 [22]: 1.76 µM
TGI [22]: 5.33 µM
GI50 [23]: 3.21 µM
TGI [23]: 12.3 µM
GI50 [24]: 3.3 µM
TGI [24]: > 23 µM
GI50 [25]: 1.8 µM
TGI [25]: 4.11 µM
GI50 [26]: 2.02 µM
TGI [26]: 4.68 µM
GI50 [27]: 2.22 µM
TGI [27]: 7.28 µM
GI50 [28]: 1.78 µM
TGI [28]: 6.12 µM
GI50 [29]: 1.92 µM
TGI [29]: 4.21 µM
GI50 [30]: 2.01 µM
TGI [30]: 8.73 µM
GI50 [31]: 2.19 µM
TGI [31]: 5.78 µM
GI50 [32]: 2.48 µM
TGI [32]: 6.3 µM
GI50 [33]: 4.88 µM
TGI [33]: 17.1 µM
GI50 [34]: 2.33 µM
TGI [34]: 7.74 µM
GI50 [35]: 2.49 µM
TGI [35]: 6.28 µM
GI50 [36]: 3.57 µM
TGI [36]: 18 µM
GI50 [37]: 2.33 µM
TGI [37]: 6.06 µM
GI50 [38]: 2.72 µM
TGI [38]: 8.59 µM
GI50 [39]: 3.36 µM
TGI [39]: 15.2 µM
GI50 [40]: 0.722 µM
TGI [40]: 3.07 µM
GI50 [41]: 6.75 µM
TGI [41]: 21 µM
GI50 [42]: 2.58 µM
TGI [42]: 8.91 µM
GI50 [43]: 3.81 µM
TGI [43]: 15.1 µM
GI50 [44]: 1.65 µM
TGI [44]: > 100 µM
GI50 [45]: 1.99 µM
TGI [45]: 6.68 µM
GI50 [46]: 1.66 µM
TGI [46]: 4.21 µM
GI50 [47]: 2.23 µM
TGI [47]: 9.29 µM
GI50 [48]: 1.68 µM
TGI [48]: 3.87 µM
GI50 [49]: 2.48 µM
TGI [49]: 6.65 µM
GI50 [50]: 6.38 µM
TGI [50]: 36.3 µM
GI50 [51]: 2.74 µM
TGI [51]: 8.31 µM
GI50 [52]: 2.32 µM
TGI [52]: 5.37 µM
GI50 [53]: 2.87 µM
TGI [53]: 12 µM
GI50 [54]: 3.5 µM
TGI [54]: > 43 µM
GI50 [55]: 9.52 µM
TGI [55]: 31.2 µM
GI50 [56]: 6.25 µM
TGI [56]: 14.1 µM
GI50 [57]: 2.37 µM
TGI [57]: 7.93 µM
GI50 [58]: 4.02 µM
TGI [58]: 35.5 µM
